Patent US20120214760A1, “TREATMENT OF URINARY TRACT INFECTIONS WITH ANTIBACTERIAL AMINOGLYCOSIDE COMPOUNDS” (Achaogen, Inc., priority 2009, published 2012)
≈ marks a conversion by molar mass, not a printed value. Read-outs that look alike come from different tables or passages of the source.

Key:
[1] = system: P. aeruginosa ATCC 27853 (APAE001); assay: MIC, CLSI broth microdilution; assay type: cell-based; details: for MIC: Pseudomonas aeruginosa
Method in brief: (§1)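 MICs were read after 20 hours at 35° C in ambient air, with a final inoculum of 5×10^5 CFU/mL from saline-suspended overnight colonies. Serial two-fold dilutions in Mueller Hinton Broth followed the CLSI reference method (M7-A7), with QC strains E. coli ATCC 25922, P. aeruginosa ATCC 27853 and S. aureus ATCC 29213.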

[2] = system: E. coli ATCC 25922 (AECO001); assay: MIC, CLSI broth microdilution; assay type: cell-based; details: Escherichia coli
Method in brief: as §1

[3] = ATCC27853, read-out: MIC APAE001, Table 1, APAE001 is ATCC27853
[4] = ATCC25922, read-out: MIC AECO001, Table 1, AECO001 is ATCC25922

CN[C@@H]1[C@@H](O)[C@@H](O[C@@H]2[C@@H](O)[C@H](O[C@H]3OC(CN)=CC[C@H]3NC(=O)C(C)N)[C@@H](N)C[C@H]2NC(=O)[C@@H](O)CCN)OC[C@]1(C)O (stereo partly drawn) [Example 88, 2′-(2-Amino-propionyl)-1-(4-amino-2(S)-hydroxy-butyryl)-sisomicin]
MIC [1, 3]: 1 to 16 µg/mL (≈ 1.61 to 25.8 µM) | MIC [2, 4]: 1 to 16 µg/mL (≈ 1.61 to 25.8 µM)

CN[C@@H]1[C@@H](O)[C@@H](O[C@@H]2[C@@H](O)[C@H](O[C@H]3OC(CN)=CC[C@H]3NC(=O)C(O)CN)[C@@H](N)C[C@H]2NC(=O)[C@@H](O)CCN)OC[C@]1(C)O (stereo partly drawn) [Example 89, 2′-(3-Amino-2-hydroxy-propionyl)-1-(4-amino-2(S)-hydroxy-butyryl)-sisomicin]
MIC [1, 3]: 1 to 16 µg/mL (≈ 1.57 to 25.2 µM) | MIC [2, 4]: < 1 µg/mL

CN[C@@H]1[C@@H](O)[C@@H](O[C@@H]2[C@@H](O)[C@H](O[C@H]3OC(CN)=CC[C@H]3NC(=O)C3CCCN3)[C@@H](N)C[C@H]2NC(=O)[C@@H](O)CCN)OC[C@]1(C)O (some centres unmarked) [Example 90]
MIC [1, 3]: 1 to 16 µg/mL (≈ 1.55 to 24.8 µM) | MIC [2, 4]: < 1 µg/mL

CN[C@@H]1[C@@H](O)[C@@H](O[C@@H]2[C@@H](O)[C@H](O[C@H]3OC(CN)=CC[C@H]3NCCCN)[C@@H](N)C[C@H]2NC(=O)[C@@H](O)CCN)OC[C@]1(C)O [Example 91, 2′-(3-Amino-propyl)-1-(4-amino-2(S)-hydroxy-butyryl)-sisomicin]
MIC [1, 3]: < 1 µg/mL | MIC [2, 4]: < 1 µg/mL

CN[C@@H]1[C@@H](O)[C@@H](O[C@@H]2[C@@H](O)[C@H](O[C@H]3OC(CN)=CC[C@H]3NC(=O)CC3CNCCO3)[C@@H](N)C[C@H]2NC(=O)[C@@H](O)CCN)OC[C@]1(C)O (stereo partly drawn) [Example 92, 2′-(Morpholin-2-yl-acetyl)-1-(4-amino-2(S)-hydroxy-butyryl)-sisomicin]
MIC [1, 3]: > 16 µg/mL | MIC [2, 4]: < 1 µg/mL

CN[C@@H]1[C@@H](O)[C@@H](O[C@@H]2[C@@H](O)[C@H](O[C@H]3OC(CN)=CC[C@H]3NS(=O)(=O)CCN)[C@@H](N)C[C@H]2NC(=O)[C@@H](O)CCN)OC[C@]1(C)O [Example 93, 2′-(2-Amino-ethyl-sulfonamide)-1-(4-amino-2(S)-hydroxy-butyryl)-sisomicin]
MIC [1, 3]: 1 to 16 µg/mL (≈ 1.52 to 24.4 µM) | MIC [2, 4]: < 1 µg/mL

CN[C@@H]1[C@@H](O)[C@@H](O[C@@H]2[C@@H](O)[C@H](O[C@H]3OC(CN)=CC[C@H]3NCC(C)(C)CN(C)C)[C@@H](N)C[C@H]2NC(=O)[C@@H](O)CCN)OC[C@]1(C)O [Example 94, 2′-(N,N-Dimethyl-2,2-dimethyl-3-amino-propyl)-1-(4-amino-2(S)-hydroxy-butyryl)-sisomicin]
MIC [1, 3]: > 16 µg/mL | MIC [2, 4]: 1 to 16 µg/mL (≈ 1.51 to 24.2 µM)

CN[C@@H]1[C@@H](O)[C@@H](O[C@@H]2[C@@H](O)[C@H](O[C@H]3OC(CN)=CC[C@H]3NC[C@H](C)N)[C@@H](N)C[C@H]2NC(=O)[C@@H](O)CCN)OC[C@]1(C)O [Example 95, 2′-(2(S)-Amino-propyl)-1-(4-amino-2(S)-hydroxy-butyryl)-sisomicin]
MIC [1, 3]: > 16 µg/mL | MIC [2, 4]: < 1 µg/mL

CN[C@@H]1[C@@H](O)[C@@H](O[C@@H]2[C@@H](O)[C@H](O[C@H]3OC(CN)=CC[C@H]3NC3CNC3)[C@@H](N)C[C@H]2NC(=O)[C@@H](O)CCN)OC[C@]1(C)O [Example 96, 2′-(Azetidin-3-yl)-1-(4-amino-2(S)-hydroxy-butyryl)-sisomicin]
MIC ([1]; ATCC27853, Table 2, read-out: MIC P. aeruginosa): 1 to 16 µg/mL (≈ 1.66 to 26.5 µM) | MIC ([2]; ATCC25922, Table 2, read-out: MIC E. coli): < 1 µg/mL | MIC ([2]; Table 1, AECO001 is ATCC25922, read-out: MIC AECO001): < 1 µg/mL

CN[C@@H]1[C@@H](O)[C@@H](O[C@@H]2[C@@H](O)[C@H](O[C@H]3OC(CN)=CC[C@H]3NCC(N)CO)[C@@H](N)C[C@H]2NC(=O)[C@@H](O)CCN)OC[C@]1(C)O (stereo partly drawn) [Example 97, 2′-(2-Amino-propanol)-1-(4-amino-2(S)-hydroxy-butyryl)-sisomicin]
MIC APAE001 ([1]; Table 1, APAE001 is ATCC27853): B (MIC's of greater than 1.0 μg/mL to 16.0 μg/mL = B) | MIC [2, 4]: < 1 µg/mL

CN[C@@H]1[C@@H](O)[C@@H](O[C@@H]2[C@@H](O)[C@H](O[C@H]3OC(CN)=CC[C@H]3NCCO)[C@@H](N)C[C@H]2NC(=O)[C@@H](O)CCN)OC[C@]1(C)O [Example 98, 2′-(2-Hydroxy-ethyl)-1-(4-amino-2(S)-hydroxy-butyryl)-sisomicin]
MIC [1, 3]: 1 to 16 µg/mL (≈ 1.69 to 27 µM) | MIC [2, 4]: 1 to 16 µg/mL (≈ 1.69 to 27 µM)
